Assays:
ADRM1 = target: T1, ADRM1 (Homo sapiens, UniProt Q16186); test: SPR analysis, immobilized full length His-ADRM1; assay type: binding; settings: Biacore 3000, CM5 chip, 25 °C, read-out: dissociation constant (KD) for ADRM1
T1 construct: ADRM1 and HR23B human full length proteins were purchased; His-tag; purchased ATgen (Gyeonggi-do, Korea)
Source text: SPR was utilized as an independent confirmation of the kinetic parameters between SQAP and the putative binding proteins. […] The recombinant proteins were then expressed in Escherichia coli and purified to homogeneity. In addition, full length, His-tagged ADRM1 and GST-tagged HR23B (GST-HR23B) were also used. The proteins were first immobilized on a CM5 sensor chip of the SPR biosensor (Biacore 3000). For GST-HR23B analysis, a GST protein was additionally immobilized and used as a control in order to eliminate possible nonspecific binding of SQAP. SQAP samples at different concentrations were then injected over the proteins immobilized on the sensor chip. As a negative control we used sulfoquynovosylpropanediol (SQP), which lacks the fatty acid moiety of SQAP (Fig. 1). […]
The binding kinetics of SCP-2, MFE-2, ADRM1, HR23B and FAK with SQAP and SQP were analyzed on a Biacore 3000 instrument (GE Healthcare, Little Chalfont, UK). […] The buffer of purified peptides was exchanged to HBS-P (150 mM NaCl, 0.005% Surfactant P20, 10 mM HEPES-NaOH pH 7.4) using a PD 10 column (GE Healthcare, Little Chalfont, UK) and the concentrations were quantified using DC protein assay kit (Bio-Rad Laboratories, Hercules, CA, USA). […] Kinetic parameters were determined by analyzing the data using BIAevaluation 4.1 software (GE Healthcare, Little Chalfont, UK).

[1] = tested on: Akt phosphorylation at S473 in A549; test: Akt phosphorylation in A549, Western blotting; assay type: cell-based, human; settings: A549, fibronectin, 1 h treatment
Procedure: Fibronectin is a glycoprotein located in the extracellular matrix that binds to integrins. […] A549 lung cancer cells have been used before for studying cell migration because of their metastatic model potential. A549 cells are also one of the tumor cell lines sensitive to SQMG[9]. Therefore, we studied the phosphorylation of FAK in A549 cells (Fig. 5C,D). SQAP could inhibit the phosphorylation of FAK at Y397 and Y925 after 1 h treatment in a dose dependent manner. […] We also examined paxillin and Akt phosphorylation in A549 as downstream targets of FAK. […] We hypothesize that SQAP diminish on Akt phosphorylation being more readily in A549 cancer cells than in HUVEC endothelial cells might be due to a higher Akt basal activity on cancer cells.
Cells were harvested and solubilized in RIPA buffer (20 mM Tris-HCl, pH 7.5, 1% Sodium deoxycholate, 150 mM NaCl, 5 mM EDTA, 1% Triton X-100, 0.1% SDS, 0.1%, 1 mM PMSF, 1 mM vanadate and 1 μg/mL leupeptin). Protein quantification was determined using the DC protein assay kit (Bio-Rad, Hercules, CA, USA). A total of 15 μg of each protein sample were separated by SDS–PAGE gels and blotted onto polyvinylidene difluoride membranes (Merck, Kenilworth, NJ, US). […]

T1 sequence (Q16186 whole entry): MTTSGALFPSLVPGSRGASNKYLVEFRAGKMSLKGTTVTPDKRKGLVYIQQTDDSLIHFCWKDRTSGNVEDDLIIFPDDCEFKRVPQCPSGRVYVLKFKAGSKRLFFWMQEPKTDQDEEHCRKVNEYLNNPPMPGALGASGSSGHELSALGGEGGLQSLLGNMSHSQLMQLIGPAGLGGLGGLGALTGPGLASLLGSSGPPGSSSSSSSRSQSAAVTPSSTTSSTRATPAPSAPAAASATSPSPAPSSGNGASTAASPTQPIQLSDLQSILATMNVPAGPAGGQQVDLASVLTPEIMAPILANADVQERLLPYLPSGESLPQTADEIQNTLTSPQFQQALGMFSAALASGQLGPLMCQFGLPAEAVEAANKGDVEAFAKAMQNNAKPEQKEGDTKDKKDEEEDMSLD

- Kd (ADRM1): 9.65 µM
SMILES: CCCCCCCCCCCCCCCCCC(=O)OCCCO[C@H]1O[C@H](CS(=O)(=O)O)[C@@H](O)[C@H](O)[C@H]1O [SQAP, sulfoquynovosylacylpropanediol]
- Akt phosphorylation at S473 [1]: clearly downregulated

— PMC4601023, “Novel anticancer agent, SQAP, binds to focal adhesion kinase and modulates its activity” (Scientific Reports, 2015)
